# Laboratory results: paper PMC4747835 (Journal of controlled release : official journal of the …, 2015)
# Where two headings read alike, the source gives them in different places.
# Experiments:
# [1] = rat, in vivo
# [2] = in vivo; cited from earlier work
# [3] = in vivo; conditions: male, Sprague-Dawley, rat, 100 ug/kg
compound,measurement,setting,value
"CSCC[C@@H]1NC(=O)[C@H](CC(C)C)NC(=O)[C@H](CCCNC(=N)N)NC(=O)[C@H](CO)NC(=O)[C@@H]2CSSC[C@@H]3NC(=O)[C@H](CO)NC(=O)CNC(=O)[C@H]([C@@H](C)O)NC(=O)[C@H](CSSC[C@H](N)C(=O)N[C@@H](CCCCN)C(=O)NCC(=O)N[C@@H](CCCCN)C(=O)NCC(=O)N[C@@H](C)C(=O)N[C@@H](CCCCN)C(=O)N2)NC(=O)[C@H](CSSC[C@@H](C(N)=O)NC(=O)[C@H](CCCCN)NC(=O)CNC(=O)[C@H](CO)NC(=O)[C@H](CCCNC(=N)N)NC3=O)NC(=O)[C@H](CC(=O)O)NC(=O)[C@H](Cc2ccc(O)cc2)NC1=O [ziconotide, Ziconotide]",AUC0-6 in CSF,[1],1.57 ± 0.44 µg·min/mL
same,Cmax in CSF,[1],33.55 ± 7.39 ng/mL
same,Tmax in CSF,[1],0.25 h
same,"bioavailability (AUC0-6) in CSF, fold less than i.v administration",[1],~ 3 fold
same,elimination rate constant in CSF,[1],1.01 ± 0.34 h⁻¹
same,AUC0-6 in CSF,[1]; iv,4.98 ± 0.98 µg·min/mL
same,Cmax in CSF,[1]; iv,37.78 ± 6.8 ng/mL
same,Tmax in CSF,[1]; iv,2 h
same,occurrence of meningitis,[2],3%
same,level at 0.25 h,[3],992 ± 76.4 ng/mL
